Consider 4 compounds from ChEMBL document CHEMBL1140151, “Alpha,beta-methylene-2'-deoxynucleoside 5'-triphosphates as noncleavable substrates for DNA polymerases: isolation, characterization, and stability studies of novel 2'-deoxycyclonucleosides, 3,5'-cyclo-dG, and 2,5'-cyclo-dT” (J Med Chem, 2008).

For test [1], the target named is T1, DNA polymerase beta (Homo sapiens, UniProt P06746). The test can be described thus: Inhibition of human DNA polymerase beta.
For test [2], the target named is T1, DNA polymerase beta. The test can be described thus: Inhibition of human DNA polymerase beta assessed as inhibition of dCTP incorporation by gap filling assay.

SMILES strings stand for the structures. The source made the active and inactive calls. The rule behind the calls is not given here.

In turn, `Nc1nc2c(ncn2[C@H]2C[C@H](O)[C@@H](COP(=O)(O)CP(=O)(O)OP(=O)(O)O)O2)c(=O)[nH]1` came in with a Ki in test [1] of 1000 nM. In test [1], `Cc1cn([C@H]2C[C@H](O)[C@@H](COP(=O)(O)CP(=O)(O)OP(=O)(O)O)O2)c(=O)[nH]c1=O` returned a Ki of 600 nM.

`Nc1ncnc2c1ncn2[C@H]1C[C@H](O)[C@@H](COP(=O)(O)CP(=O)(O)OP(=O)(O)O)O1` had a Ki in test [1] of 5000 nM. In the case of `Nc1ccn([C@H]2C[C@H](O)[C@@H](COP(=O)(O)CP(=O)(O)OP(=O)(O)O)O2)c(=O)n1`, the result in test [2] was Active. This compound also returned a Ki in test [1] of 900 nM.
